Series [1] in a line: Body weight measurement in MIA-induced osteoarthritis trial. The format is in vivo. To be noted: MIA rats, single IA dose: CBD solution 300 ug/joint, Examples 2 and 4 2 mg/joint, Example 3 1 mg/joint; test period. The method, then: (§1) After acclimatization, rats were divided into groups, and the area around the left lower limb knee joint of each rate was shaved clean. Then, MIA (monosodium iodoacetate, Sigma, USA), an osteoarthritis-inducing substance, was prepared at a concentration of 60 mg/mL in 0.9% sterile saline and 50 μL was administered intra-articularly to each rat using a BD Ultra-Fine™ II Insulin Syringe. The right knee joint was administered only the same volume of 0.9% sterile saline. Two weeks after MIA administration, the test substances shown in Table 5 below were administered intra-articularly, and the therapeutic efficacy thereof was evaluated.
(§2) CBD solution and Examples 2 to 4 were each administered to the left knee joint cavity 14 days after MIA administration, and only the same amount of 0.9% sterile saline was administered to the right knee joint. The normal control and positive control groups were also administered the same amount of 0.9% saline.
However, when CBD was administered, it was confirmed that the body weight gain increased compared to that in the positive control as feed intake activity was improved due to a decrease in pain. This tendency was particularly significant in Examples 3 and 4.

The subject of series [2] is MIA-OA model. Briefly: Trial for treatment of osteoarthritis (OA): weight-bearing and paw withdrawal tests taken together. Type of series: in vivo, rats. The procedure: as §1, §2
Series [3] is described as follows: Rat pharmacokinetic test, single subcutaneous injection. The arrangement: species or system SD rats. To be noted: male, SD, in vivo, CBD solution 300 μg/head, IVL5005 9 mg/head, rat serum, read-out: blood CBD concentration. The source says: The experimental conditions for conducting the rat pharmacokinetic test are as follows:
CBD isolate solution was used as a control. As experimental animals, 6-week-old male SD rats were purchased from Coretech, acclimated for a week, and then tested. The experimental diet was a general feed for experimental animals (Orient), and the rats were raised with free access to water and feed.
At a total of 14 time points, including time 0 (before SC administration of the test substance to the acclimated rats) and 4 hr, 8 hr, 24 hr, 3 d, 5 d, 1 w, 2 w, 4 w, 6 w, 8 w, and 12 w after SC administration of the test substance, 500 to 1,000 μL of blood was sampled from the jugular vein at each time point, and then immediately, the blood was centrifuged at 1,000 g for 10 minutes to separate the serum, which was then frozen and stored at −70° C.

For series [4], the system named is MIA-OA model. The series can be described thus: Paw withdrawal threshold test in osteoarthritis model. To be noted: thereafter (later than 2 hours after administration). Type of series: in vivo, rats. The method, then:
as §1, with “evaluated. […]” for “evaluated.”
The paw withdrawal response was measured before MIA administration (day 0) and 7 days and 14 days after MIA administration (before test drug administration), and the paw withdrawal response was evaluated after applying mechanical stimulation using an electronic von-Frey aesthesiometer (IITC Life Science, USA) 2 hours, 4 hours, 4 days, 7 days, 11 days, 14 days, 21 days, and 28 days after test drug administration. […] In the measurement method, an electronic von-Frey filament was applied perpendicular to the sole of the paw, the threshold (g force) value at which a rapid withdrawal response occurred was measured. The measurement results were analyzed as the ratio of g forces measured on the left and right paws (left/right). […]

Data on one compound can be found in patent publication US20260130857A1, “SUSTAINED-RELEASE INJECTABLE COMPOSITION FOR TREATING OR PREVENTING INFLAMMATORY DISEASE, AND METHOD FOR PREPARING SAME” (INVENTAGE LAB INC., priority 2022, published 2026).

For `C=C(C)[C@@H]1CCC(C)=C[C@H]1c1c(O)cc(CCCCC)cc1O` [CBD solution, Cannabidiol], the “body weight gain compared to positive control group” value in series [1] is reported as “tended to increase”. For the same compound, the “therapeutic effect compared to the PC group” value was “no difference from the PC group” in series [2] (after the early stage / long term (to day 28)) and “showed an effect” in series [2] (early stage of administration). Besides, in series [3] (1 w after single SC), the concentration at 1 w is 361 ng/mL. In addition, the concentration at 2 w in series [3] (2 w after single SC) worked out at 0 ng/mL. For the same compound, the concentration at 4 w in series [3] (4 w after single SC) was found to be 0 ng/mL. Moreover, the concentration at 7 w in series [3] (7 w after single SC) came out at 0 ng/mL. Moreover, the concentration at 1 d in series [3] (1 d after single SC) stood at 3940 ng/mL. In addition, the “paw withdrawal threshold ratio compared to control group” value in series [4] was “no difference”.
